Reference: US4263280A, “Synergistic mixtures” (priority 1978, dated 1981)
Where a name gives a salt, the structure may show the parent alone.

Assays:
[1] = system: Proteus rettgeri 1121; assay: in vitro MIC, chessboard microdilution, Proteus rettgeri 1121; assay type: cell-based
Description: (§1) The combination substances A and B are diluted in DST broth OXOID in chessboard arrangement with the aid of microtitre system in 1:2 steps. All the concentrations of substance A are combined with all the concentrations of substance B and then inoculated with a standardised bacteria suspension (final concentration about 10^4 bacilli/ml). After incubation for 18 hours at 37° C., the inhibition of the bacterial growth is determined. The inhibiting concentrations are converted by the method of Kerry et al. (J. Antimicrob. […] By way of example, a number of the MIC values for the action of cefsulodin sodium, mecillinam, mezlocillin and gentamicin alone against a number of micro-organisms, as well as the MIC values for a number of mixtures in which synergism occurs, are reported in Table 1.

[2] = system: Kiebsiella pneumoniae 1132; assay: in vitro MIC, chessboard microdilution, Klebsiella pneumoniae 1132; assay type: cell-based
Description: as §1

[3] = system: Klebsiella pneumoniae 1; assay: in vitro MIC, chessboard microdilution, Klebsiella pneumoniae 1; assay type: cell-based
Description: as §1

[4] = system: Klebsiella pneumoniae 1136; assay: in vitro MIC, chessboard microdilution, Klebsiella pneumoniae 1136; assay type: cell-based
Description: as §1

[5] = system: Klebsiella pneumoniae 329; assay: systemic infection in mice, survival, Klebsiella pneumoniae 329; assay type: in vivo; conditions: fifth day
Description: (§2) The combination substances A and B are diluted in 1:3 to 1:3.3 steps such that the average concentration contains the respective amount of substance A and substance B corresponding to the ED50.
(§3) Female MF 2 mice weighing 18 to 22 g are divided at random into groups (n=20) and infected intraperitoneally with a standardised bacteria suspension which, according to strain, represents 5 to >20 LD50.
(§4) Immediately after the infection, and 3 hours later, the mice are treated in groups subcutaneously with dilutions of substances A and B as well as with combinations thereof. These combinations are prepared shortly before administration by mixing each dilution of substance A with each dilution of substance B. The survival rates are determined on the fifth day after the infection. The survival rates of mice which are determined with each of substances A and B alone are compared with those obtained with the combinations of these substances. A combination which has protected more animals from death than would be expected from the independent action of the substances, is designated as having synergistic action.
(§5) The survival rates, expressed as percentages of surviving animals, found in infections with a number of pure micro-organisms and in polyinfections is reported in Table 2 for cefsulodin sodium, mecillinam, mezlocillin, gentamicin and CGP 14 221/E, as well as for corresponding mixtures.

[6] = system: Escherichia coli 205; assay: systemic infection in mice, survival, Escherichia coli 205; assay type: in vivo; conditions: fifth day
Description: as §2, §3, §4, §5

[7] = system: enterobacteria, such as Escherichia coli and Klebsiella pneumoniae; conditions: cited from earlier work
[8] = system: Pseudomonas aeruginosa 1140; assay: in vitro MIC, chessboard microdilution, Pseudomonas aeruginosa 1140; assay type: cell-based
Description: as §1

[9] = system: Proteus mirabilis 1077; assay: in vitro MIC, chessboard microdilution, Proteus mirabilis 1077; assay type: cell-based
Description: as §1

[10] = system: anaerobei, for example Bacteroides; conditions: cited from earlier work
[11] = system: Klebsiella pneumoniae 329 + Escherichia coli 205; assay: systemic polyinfection in mice, survival, Klebsiella pneumoniae 329 + Escherichia coli 205; assay type: in vivo; conditions: 100 mg/kg s.c., fifth day
Description: as §2, §3, §4, §5

[12] = system: Pseudomonas aeruginosa 410; assay: in vitro MIC, chessboard microdilution, Pseudomonas aeruginosa 410; assay type: cell-based
Description: as §1

[13] = system: Klebsiella pneumoniae 327; assay: systemic infection in mice, survival, Klebsiella pneumoniae 327; assay type: in vivo; conditions: fifth day
Description: as §2, §3, §4, §5

[14] = system: Escherichia coli 576; assay: in vitro MIC, chessboard microdilution, Escherichia coli 576; assay type: cell-based
Description: as §1

[15] = system: Pseudomonas aeruginosa + Klebsiella pneumoniae; assay: experimental pyelonephritis (polyinfection) in mice, Pseudomonas aeruginosa + Klebsiella pneumoniae; assay type: in vivo; conditions: percentage of animals, 25 mg/kg s.c.
Description: (§6) Mice are treated intravenously with 10 mg/kg of carrageenin. Seven days later they are infected with a standardised suspension of bacteria. […] Two days after the last treatment, the mice are sacrificed, dissected and examined for the number of germs in the kidneys.

[16] = system: Pseudomonas aeruginosa G 121; assay: in vitro MIC, chessboard microdilution, Pseudomonas aeruginosa G 121; assay type: cell-based
Description: as §1

[17] = system: Gram-negative cocci, Gram-positive cocci and bacteria, and especially against Pseudomonas strains; conditions: carbenicillin-sensitive and carbenicillin-resistant Pseudomonas; cited from earlier work
[18] = system: Escherichia coli 205 RTEM^+; assay: systemic infection in mice, survival, Escherichia coli 205 RTEM+; assay type: in vivo; conditions: 40 mg/kg s.c., fifth day
Description: as §2, §3, §4, §5

[19] = system: Pseudomonas aeruginosa + Escherichia coli; assay: experimental pyelonephritis (polyinfection) in mice, Pseudomonas aeruginosa + Escherichia coli; assay type: in vivo; conditions: percentage of animals, 25 mg/kg s.c.
Description: as §6

[20] = system: Pseudomonas aeruginosa 799A; assay: in vitro MIC, chessboard microdilution, Pseudomonas aeruginosa 799A; assay type: cell-based
Description: as §1

[21] = system: Staphylococcus aureus; assay: in vitro MIC, chessboard microdilution, Staphylococcus aureus; assay type: cell-based
Description: as §1

[22] = system: Escherichia coli 12-44; assay: in vitro MIC, chessboard microdilution, Escherichia coli 12-44; assay type: cell-based
Description: as §1

[23] = in combination with Mecillinam 0.25 mcg/ml
[24] = in combination with Gentamicin 0.25 mcg/ml

For `NC(=O)c1cc[n+](CC2=C(C(=O)O)N3C(=O)[C@@H](NC(=O)[C@@H](c4ccccc4)S(=O)(=O)[O-])[C@H]3SC2)cc1` [Cefsulodin-Na, sodium salt of N-[7β-(α-sulfophenylacetamido)ceph-3-em-3-yl-methyl]-4'-carbamoylpyridinium-4-carboxylate], the MIC ([1]; Providencia rettgeri, 1121, alone, 18 hours, 37° C., read-out: MIC, antibiotic alone) was 12.5 µg/mL, the “MIC, antibiotic A in combination with B” value ([1]; in combination with Gentamicin 0.5 mcg/ml) was 0.8 µg/mL and the “MIC, antibiotic A in combination with B” value ([1]; in combination with Mecillinam 1.6 mcg/ml) was 0.4 µg/mL. For the same molecule, the MIC ([2]; Klebsiella pneumoniae, 1132, alone, 18 hours, 37° C., read-out: MIC, antibiotic alone) was 25 µg/mL, the “MIC, antibiotic A in combination with B” value [2, 23] was 6.2 µg/mL and the MIC ([3]; Klebsiella pneumoniae, 1, alone, 18 hours, 37° C., read-out: MIC, antibiotic alone) was 50 µg/mL. The “MIC, antibiotic A in combination with B” value ([3]; in combination with Mezlocillin 0.16 mcg/ml) was 25 µg/mL, the MIC ([4]; Klebsiella pneumoniae, 1136, alone, 18 hours, 37° C., read-out: MIC, antibiotic alone) was 50 µg/mL and the “MIC, antibiotic A in combination with B” value [4, 23] was 12.5 µg/mL. For the same molecule, the “surviving animals, antibiotic alone” value ([5]; 40 mg/kg s.c.) was 0%, the “surviving animals, antibiotic alone” value ([5]; 50 mg/kg s.c.) was 0% and the “surviving animals, antibiotic alone” value ([5]; 80 mg/kg s.c.) was 5%. For the same molecule, the “surviving animals, antibiotic alone” value ([6]; 25 mg/kg s.c.) was 5%, the “surviving animals, antibiotic alone” value ([6]; 40 mg/kg s.c.) was 10% and the “antibiotic action against enterobacteria” value [7] was “relatively insignificant action”. The MIC ([8]; Pseudomonas aeruginosa, 1140, alone, 18 hours, 37° C., read-out: MIC, antibiotic alone) was 8 µg/mL, the “MIC, antibiotic A in combination with B” value ([8]; in combination with Gentamicin 4 mcg/ml) was 2 µg/mL and the MIC ([9]; Proteus mirabilis, 1077, alone, 18 hours, 37° C., read-out: MIC, antibiotic alone) was 50 µg/mL. For the same molecule, the “MIC, antibiotic A in combination with B” value ([9]; in combination with Mezlocillin 0.25 mcg/ml) was 12.5 µg/mL, the “antibiotic action against anaerobei” value [10] was “relatively insignificant action” and the “surviving animals, antibiotic alone” value [11] was 0%. For the same molecule, the MIC ([12]; Pseudomonas aeruginosa, 410, alone, 18 hours, 37° C., read-out: MIC, antibiotic alone) was 2 µg/mL, the “MIC, antibiotic A in combination with B” value [12, 24] was 0.06 µg/mL and the “surviving animals, antibiotic alone” value ([13]; 50 mg/kg s.c.) was 0%. The “surviving animals, antibiotic alone” value ([13]; 100 mg/kg s.c.) was 0%, the MIC ([14]; Escherichia coli, 576, alone, 18 hours, 37° C., read-out: MIC, antibiotic alone) was 64 µg/mL and the “MIC, antibiotic A in combination with B” value [14, 24] was 32 µg/mL. For the same molecule, the “Clearance of the kidneys from both micro-organisms, antibiotic alone” value [15] was 10%, the MIC ([16]; Pseudomonas aeruginosa, G121, alone, 18 hours, 37° C., read-out: MIC, antibiotic alone) was 1.2 µg/mL and the “MIC, antibiotic A in combination with B” value ([16]; in combination with Mezlocillin 12.5 mcg/ml) was 0.04 µg/mL. For the same molecule, the antibiotic action [17] was “directed against Gram-negative cocci, Gram-positive cocci and bacteria, and especially against Pseudomonas strains, both carbenicillin-sensitive and carbenicillin-resistant”, the “surviving animals, antibiotic alone” value [18] was 0% and the “Clearance of the kidneys from both micro-organisms, antibiotic alone” value [19] was 0%. The MIC ([20]; Pseudomonas aeruginosa, 799A, alone, 18 hours, 37° C., read-out: MIC, antibiotic alone) was 1 µg/mL, the “MIC, antibiotic A in combination with B” value ([20]; in combination with Mecillinam 32 mcg/ml) was 0.25 µg/mL and the MIC ([21]; Staphylococcus aureus, alone, 18 hours, 37° C., read-out: MIC, antibiotic alone) was 3.2 µg/mL. The “MIC, antibiotic A in combination with B” value ([21]; in combination with Mezlocillin 1.6 mcg/ml) was 0.2 µg/mL, the MIC ([22]; Escherichia coli, 1244, alone, 18 hours, 37° C., read-out: MIC, antibiotic alone) was 25 µg/mL and the “MIC, antibiotic A in combination with B” value ([22]; in combination with Mecillinam 0.12 mcg/ml) was 12.5 µg/mL.
